From publication PMC5572761 (Journal of medicinal chemistry, 2017)
Where a SMILES comes first, the peptide text is derived from it. Bridges are numbered along the chain shown (N, C = ends).

Legend:
rat α3β4 nAChR = rat α3β4 nAChR (Rattus norvegicus, UniProt P04757+P12392); type: cell-based
rat α6/α3β4 nAChR = rat α6/α3β4 nAChR (Rattus norvegicus, UniProt P04757+P12392+P43143); type: cell-based
rat α6/α3β4 nAChR, sequence (P04757 whole entry, looked up): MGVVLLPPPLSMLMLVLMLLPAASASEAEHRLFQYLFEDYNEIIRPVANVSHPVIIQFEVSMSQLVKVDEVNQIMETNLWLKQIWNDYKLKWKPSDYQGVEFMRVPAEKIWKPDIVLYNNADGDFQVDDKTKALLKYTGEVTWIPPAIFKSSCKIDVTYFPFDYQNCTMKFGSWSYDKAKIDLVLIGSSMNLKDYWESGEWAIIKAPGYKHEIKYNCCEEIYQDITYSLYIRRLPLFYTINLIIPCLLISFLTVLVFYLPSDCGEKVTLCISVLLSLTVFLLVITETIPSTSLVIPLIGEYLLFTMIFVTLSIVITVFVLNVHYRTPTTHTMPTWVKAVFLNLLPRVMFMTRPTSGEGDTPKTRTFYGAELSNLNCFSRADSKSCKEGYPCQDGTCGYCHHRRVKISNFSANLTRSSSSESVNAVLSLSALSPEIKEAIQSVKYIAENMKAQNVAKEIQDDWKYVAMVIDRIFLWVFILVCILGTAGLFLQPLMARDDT
rat α6/α3β4 nAChR, sequence (P12392 whole entry, looked up): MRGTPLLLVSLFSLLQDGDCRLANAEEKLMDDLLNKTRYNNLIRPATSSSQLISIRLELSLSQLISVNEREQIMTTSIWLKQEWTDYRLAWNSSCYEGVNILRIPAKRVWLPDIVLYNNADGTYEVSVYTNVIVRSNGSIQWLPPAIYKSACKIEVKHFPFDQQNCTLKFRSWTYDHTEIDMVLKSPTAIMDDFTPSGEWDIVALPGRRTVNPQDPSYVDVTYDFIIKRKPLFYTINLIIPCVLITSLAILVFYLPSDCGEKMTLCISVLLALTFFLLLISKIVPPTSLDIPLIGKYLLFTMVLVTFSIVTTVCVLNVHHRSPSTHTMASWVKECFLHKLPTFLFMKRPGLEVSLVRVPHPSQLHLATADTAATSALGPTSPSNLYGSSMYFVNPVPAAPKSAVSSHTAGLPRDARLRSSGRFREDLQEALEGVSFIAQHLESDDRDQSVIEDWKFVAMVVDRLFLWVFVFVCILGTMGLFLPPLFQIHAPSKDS
rat α6/α3β4 nAChR, sequence (P43143 whole entry, looked up): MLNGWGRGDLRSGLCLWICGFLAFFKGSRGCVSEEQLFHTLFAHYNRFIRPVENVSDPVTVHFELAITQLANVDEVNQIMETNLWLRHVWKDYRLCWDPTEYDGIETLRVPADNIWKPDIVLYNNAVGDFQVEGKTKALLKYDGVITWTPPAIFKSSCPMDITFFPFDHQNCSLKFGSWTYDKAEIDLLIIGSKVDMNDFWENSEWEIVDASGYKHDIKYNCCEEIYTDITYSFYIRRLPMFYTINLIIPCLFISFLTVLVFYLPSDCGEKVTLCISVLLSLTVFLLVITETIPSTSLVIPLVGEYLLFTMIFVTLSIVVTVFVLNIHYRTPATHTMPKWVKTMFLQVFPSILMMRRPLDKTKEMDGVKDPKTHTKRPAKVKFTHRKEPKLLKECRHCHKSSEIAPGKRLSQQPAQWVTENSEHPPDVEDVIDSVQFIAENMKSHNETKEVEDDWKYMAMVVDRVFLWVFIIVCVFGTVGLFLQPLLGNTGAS

rat α3β4 nAChR, sequence (P04757 26-499 limits assumed): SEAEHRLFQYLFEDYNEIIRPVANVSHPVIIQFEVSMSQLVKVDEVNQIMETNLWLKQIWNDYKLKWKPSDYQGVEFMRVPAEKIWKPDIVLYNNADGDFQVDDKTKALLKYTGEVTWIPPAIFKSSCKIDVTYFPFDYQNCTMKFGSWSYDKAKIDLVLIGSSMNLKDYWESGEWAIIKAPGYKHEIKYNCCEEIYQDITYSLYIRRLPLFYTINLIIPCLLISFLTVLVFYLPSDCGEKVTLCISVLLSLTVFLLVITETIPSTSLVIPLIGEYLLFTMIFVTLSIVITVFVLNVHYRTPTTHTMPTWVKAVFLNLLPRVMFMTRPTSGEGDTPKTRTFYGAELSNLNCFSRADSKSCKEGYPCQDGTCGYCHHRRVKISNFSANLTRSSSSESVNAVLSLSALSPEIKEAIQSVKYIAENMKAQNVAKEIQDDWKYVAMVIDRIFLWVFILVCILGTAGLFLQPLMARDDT
rat α3β4 nAChR, sequence (P12392 21-495 limits assumed): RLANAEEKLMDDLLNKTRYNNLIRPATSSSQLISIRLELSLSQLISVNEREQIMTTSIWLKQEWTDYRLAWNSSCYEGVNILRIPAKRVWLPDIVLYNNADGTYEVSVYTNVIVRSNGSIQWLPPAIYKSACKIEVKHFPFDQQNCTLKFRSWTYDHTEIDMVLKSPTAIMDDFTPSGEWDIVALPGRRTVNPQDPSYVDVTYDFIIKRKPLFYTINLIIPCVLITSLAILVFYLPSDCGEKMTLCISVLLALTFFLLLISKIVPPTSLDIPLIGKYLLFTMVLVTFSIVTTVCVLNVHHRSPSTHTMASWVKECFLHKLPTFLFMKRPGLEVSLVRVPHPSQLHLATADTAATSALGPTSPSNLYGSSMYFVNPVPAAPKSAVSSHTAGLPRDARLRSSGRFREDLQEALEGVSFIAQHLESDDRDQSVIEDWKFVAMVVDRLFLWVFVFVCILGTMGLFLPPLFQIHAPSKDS

SMILES	Hill slope n^H α3β4 (rat α3β4 nAChR)	α3β4 IC50 ratio relative to 1 (rat α3β4 nAChR)	Hill slope n^H α6/α3β4 (rat α6/α3β4 nAChR)	α6/α3β4 IC50 ratio relative to 1 (rat α6/α3β4 nAChR)
CSCC[C@@H]1NC(=O)[C@H](C)NC(=O)[C@H](CO)NC(=O)[C@@H]2CSSC[C@H](NC(=O)CN)C(=O)N[C@@H](CSSC[C@@H](C(N)=O)NC(=O)[C@H](C)NC(=O)[C@@H]3CCCN3C(=O)[C@H](CO)NC1=O)C(=O)N[C@@H](CO)C(=O)N[C@@H](Cc1c[nH]cn1)C(=O)N1CCC[C@H]1C(=O)N[C@@H](C(C)C)C(=O)N2 [Peptide 11] (H-GCCSHPVCSAMSPAC-NH2; disulfide 2-8, 3-15)	1.05 (0.39–1.70)	4.4	1.04 (0.77–1.32)	1.3
CSCC[C@@H]1NC(=O)[C@H](C)NC(=O)[C@H](CO)NC(=O)[C@@H]2CSSC[C@H](NC(=O)CN)C(=O)N[C@@H](CSSC[C@@H](C(N)=O)NC(=O)[C@H](CC(=O)O)NC(=O)[C@@H]3CCCN3C(=O)[C@H](CO)NC1=O)C(=O)N[C@@H](CO)C(=O)N[C@@H](Cc1c[nH]cn1)C(=O)N1CCC[C@H]1C(=O)N[C@@H](C(C)C)C(=O)N2 [Peptide 14] (H-GCCSHPVCSAMSPDC-NH2; disulfide 2-8, 3-15)	1.33 (0.387–2.26)	2.7	0.84 (0.69–0.98)	1.2
